Molecular target: T1, SENP1 (Homo sapiens, UniProt Q9P0U3)
T1 sequence (Q9P0U3 1-644): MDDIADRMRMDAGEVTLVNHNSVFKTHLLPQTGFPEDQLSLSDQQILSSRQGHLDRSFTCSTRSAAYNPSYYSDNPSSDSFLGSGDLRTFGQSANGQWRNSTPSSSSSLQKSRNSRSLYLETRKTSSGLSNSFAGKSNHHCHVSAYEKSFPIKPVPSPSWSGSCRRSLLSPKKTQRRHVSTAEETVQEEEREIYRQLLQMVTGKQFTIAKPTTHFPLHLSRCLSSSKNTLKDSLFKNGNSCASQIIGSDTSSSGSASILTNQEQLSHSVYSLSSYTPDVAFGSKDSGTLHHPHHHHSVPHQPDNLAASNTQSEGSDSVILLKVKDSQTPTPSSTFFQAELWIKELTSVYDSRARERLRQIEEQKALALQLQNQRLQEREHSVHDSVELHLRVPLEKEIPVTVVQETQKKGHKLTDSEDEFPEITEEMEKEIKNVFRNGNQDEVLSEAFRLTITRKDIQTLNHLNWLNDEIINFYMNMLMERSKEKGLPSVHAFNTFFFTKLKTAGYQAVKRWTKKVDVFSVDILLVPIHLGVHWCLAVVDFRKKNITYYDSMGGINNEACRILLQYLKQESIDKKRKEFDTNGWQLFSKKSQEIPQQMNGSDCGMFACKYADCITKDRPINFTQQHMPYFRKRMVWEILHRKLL
Assay: In vitro (cell-free) thermal shift assay
Format: binding
Set-up: made in house
Details: purified SENP1, 4 h, higher temperatures
Description: FIGURE 2 UA directly interacts with Sentrin‐specific protease 1 (SENP1). (A) Cellular thermal shift assay to examine the interaction of UA with SENP1. IGROV1 CR cells pretreated with MG132 (10 μM, 1 h) were incubated with DMSO or UA for 4 h before being shifted to indicated temperatures. SENP1 stability was analyzed by using Western blot against SENP1 antibody. Right panel, quantification of non‐denatured SENP1 fraction shown in the left panel. (B) Cell‐free thermal shift assay to examine interactions of UA with SENP1. Purified SENP1 proteins were incubated with DMSO or UA for 4 h before being shifted to the indicated temperatures. SENP1 stability was analyzed by using Western blot against SENP1 antibody. Right panel, quantification of non‐denatured SENP1 fraction shown in the left panel. (C) The predicted docking pose of UA (C: green; H: white; O: red) at the hydrophobic catalytic cleft of SENP1 (C: salmon; H: white; O: red; N: blue). Key amino acid residues were highlighted. […] Stability of SENP1(C603A) was analyzed by using Western blot against SENP1 antibody. […] Left; Ultra‐high performance liquid‐chromatography‐MS/MS analyses of associated UA in indicated samples, right; quantification of data shown in left (the binding affinity of UA with SENP1‐C603A was normalized as 1). […]
The qu anti ficatio n of immunohistochemical sta in ing wa s scored blindly at lea st by two independent obser vers. […]

Structure (SMILES): C[C@H]1[C@H](C)CC[C@]2(C(=O)O)CC[C@]3(C)C(=CC[C@@H]4[C@@]5(C)CC[C@H](O)C(C)(C)[C@@H]5CC[C@]43C)[C@H]12 [UA, ursolic acid, reference compound]
- thermal stabilization of recombinant SENP1 in vitro: stabilized

From paper PMC8710297, “Identification of potent SENP1 inhibitors that inactivate SENP1/JAK2/STAT signaling pathway and overcome platinum drug resistance in ovarian cancer” (Clinical and Translational Medicine, 2021)
